Measured values taken from patent US20260265267A1, “NOVEL COMPOUNDS WITH MTORC2-INHIBITORY ACTIVITY AND USES THEREOF” (Aliad Biopharma, priority 2023, published 2026).

Tests used:
[1] = tested on: 5×FAD Alzheimer's disease model mice; assay: Passive avoidance test in 5×FAD mice (long-term memory); assay type: in vivo
Description: (§1) In order to evaluate the efficacy of HN2210, HN2213, and HN2313 on Alzheimer's disease-related symptoms, specifically regarding 1) memory and cognitive impairment, 2) amyloid plaques, 3) neurofibrillary tangles (NFTs), and 4) brain inflammation, an in vivo efficacy assessment of HN2210, HN2213 and HN2313 was conducted using 5×FAD Alzheimer's disease model mice. The 5×FAD mice were purchased from Jackson Lab, USA (Cat #034840-JAX) and crossed once with C57bl6 mice to produce F1 heterozygous offspring (Het). The compound was administered via intraperitoneal injection to 6-month-old 5×FAD Het mice, followed by behavioral testing. The normal control mice, which were littermates of the 5×FAD Het mice, were aged to 6 months and received DMSO injection at the same volume.
Specifically, to mice trained to avoid bright light three times daily, an electric foot shock (1 mA, 300 g) was applied for 3 seconds in a dark room at the same time on the next day. After 24 hours, the mice were placed again in the same room, and the avoidance response by light, that is, the time taken to move from the bright room to the dark room was measured. At 24 hours after habituation training, the mice were placed back into the bright room, and the latency time for entering the dark room was recorded over a period of 720 seconds.

LC3-II [2] = assay: LC3-II formation as indicator of autophagy in HeLa cells (Western blot); assay type: cell-based, human; conditions: 9 hours; for activity at 40 µM: Homo sapiens, read-out: LC3-II (% control)
Summary of the method: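 HeLa cells were treated with compounds at 40 μM for 9 h, then lysed in RIPA buffer and analysed by Western blot with chemiluminescent detection. LC3-II signal normalized to pan-Akt and expressed as percent of the DMSO vehicle control.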

[3] = tested on: 5×FAD Alzheimer's disease model mice; assay: Y-maze test in 5×FAD mice (short-term memory); assay type: in vivo
Description: as §1
Specifically, the Y-maze test was performed using a Y-shaped structure maze made of black acrylic with each arm at a […], and light and a camera were installed on the ceiling, and we measured the number of entries for white mice to freely enter each arm while the surroundings were covered with a curtain. This procedure was used to analyze short-term memory. In order to adapt mice to the environment, they were acclimated to the experimental space for 30 minutes. The mice were placed at one end of the maze and allowed to move freely for 12 minutes. The test was conducted with observation periods divided into 8, 10, and 12 minutes. When all four paws of a mice entered an arm, it was considered as fully entered, and the number of entries into each arm without repetition was recorded. The number of entries into each of the three different arms was divided by the total number of entries into all arms minus 2, and expressed as a percentage.

LC3-II [4] = assay: LC3-II levels in primary cultured cerebral neurons; assay type: cell-based, SD mice; conditions: for effect on LC3-II: 500 nM or 100 nM, time course to 24 hours; for LC3-II (% control): 24 hours
Description: Specifically, primary neural cells were cultured from the cerebral cortex of E16 embryos of SD […] with a gestational age 16-day (Orient Bio). The extracted brain was separated into the left and right hemispheres, the meninges were removed, and the brains were treated with trypsin in Ca^2+/Mg^2+-free HBSS solution. […] The cells were seeded at a density of 19,000 cells/cm^2 onto 35 mm culture dishes coated with 50 μg/ml poly-D-Lysine (Sigma, P0899) and 1 μg/ml laminin (Invitrogen, 23017-015), and then maintained in neurobasal complete media supplemented with B27 (Gibco, 17504-044) in a 5% CO2 incubator.
Therefore, the evaluation of mTORC2 inhibitory activity in primary cultured cerebral cells was conducted using the same method as in Experimental Example 1, except that each compound was treated at concentrations of 500 nM or 100 nM for 24 hours. The time-dependent changes in Akt Ser473 phosphorylation, Akt Thr308 phosphorylation, and LC3-II levels were measured by Western blot analysis.

mTORC2 = mTORC2 inhibitory activity in primary cultured cerebral neurons (Akt Ser473 phosphorylation); assay type: cell-based, SD mice; conditions: for effect on Akt Ser473 phosphorylation / decrease in AKT Ser473 phosphorylation at 24 hours: 500 nM or 100 nM; for effect on Akt Ser473 phosphorylation / pSer473-AKT/AKT (% control): 24 hours
Description: Specifically, primary neural cells were cultured from the cerebral cortex of E16 embryos of SD mice with a gestational age 16-day (Orient Bio). The extracted brain was separated into the left and right hemispheres, the meninges were removed, and the brains were treated with trypsin in Ca^2+/Mg^2+-free HBSS solution.
The time-dependent changes in Akt Ser473 phosphorylation, Akt Thr308 phosphorylation, and LC3-II levels were measured by Western blot analysis.

[5] = 5 mg/kg, 14 days / 2 weeks (FIG. 7)
[6] = 5 mg/kg, intraperitoneal, once daily, 14 days (FIG. 5)

Structure (SMILES)	passive avoidance latency time, increase compared to 5×FAD-DMSO mice ([1]; 5 mg/kg, 14 days (FIG. 7))	passive avoidance latency time, % of the normal control level [1, 5]	increase in LC3-II (LC3-II [2]; 40 μM)	activity at 40 µM (LC3-II [2])	Y-maze % alternation, % of the normal control level [3, 6]	Y-maze % alternation, increase compared to 5×FAD-DMSO mice [3, 6]	effect on LC3-II (LC3-II [4])	LC3-II (% control) (LC3-II [4]; 500 nM)	effect on Akt Ser473 phosphorylation (mTORC2)	decrease in AKT Ser473 phosphorylation at 24 hours (mTORC2)	pSer473-AKT/AKT (% control) (mTORC2; 500 nM)	selectivity for mTORC2 over mTORC1 (mTORC2)	further results
O=C1c2cc(F)c(N3CCOCC3)cc2COc2cc3c(cc21)OCO3 [HN2210, 8-(morpholino)-9-fluoro[2]benzoxepino[3,4-f]-1,3-benzodioxol-11(6H)-one]	5.16 fold	approximately 84%	22%	108%	93%	1.25 fold	markedly increased	348 % control	reduce Akt Ser473 phosphorylation	67%	33 % control	–	passive avoidance latency time, % of the normal control level ([1]; 0.2 mg/kg, 14 days (FIG. 8d)): approximately 56%; passive avoidance latency time, increase compared to 5×FAD-DMSO mice ([1]; 0.2 mg/kg, 14 days (FIG. 8d)): 2.97 fold; passive avoidance latency time, % of the normal control level ([1]; 1 mg/kg, 14 days (FIG. 8d)): ~83%; passive avoidance latency time, increase compared to 5×FAD-DMSO mice ([1]; 1 mg/kg, 14 days (FIG. 8d)): 4.39 fold; passive avoidance latency time, % of the normal control level ([1]; 5 mg/kg, 14 days (FIG. 8d)): ~97%; passive avoidance latency time, increase compared to 5×FAD-DMSO mice ([1]; 5 mg/kg, 14 days (FIG. 8d)): 5.16 fold; Y-maze % alternation, % of the normal control level ([3]; 0.2 mg/kg, 14 days (FIG. 8a)): approximately 85%; Y-maze % alternation, increase compared to 5×FAD-DMSO mice ([3]; 0.2 mg/kg, 14 days (FIG. 8a)): 1.21 fold; Y-maze % alternation, % of the normal control level ([3]; 1 mg/kg, 14 days (FIG. 8a)): ~82%; Y-maze % alternation, increase compared to 5×FAD-DMSO mice ([3]; 1 mg/kg, 14 days (FIG. 8a)): 1.17 fold; Y-maze % alternation, % of the normal control level ([3]; 5 mg/kg, 14 days (FIG. 8a)): ~93%; Y-maze % alternation, increase compared to 5×FAD-DMSO mice ([3]; 5 mg/kg, 14 days (FIG. 8a)): 1.32 fold; decrease in AKT Ser473 phosphorylation from 30 minutes to 6 hours (mTORC2; from 30 minutes to 6 hours): approximately 50%
O=C1c2cc(F)c(NCc3ccccc3)cc2COc2cc3c(cc21)OCO3 [HN2213, 8-(benzylamino)-9-fluoro[2]benzoxepino[3,4-f]-1,3-benzodioxol-11(6H)-one]	4.52 fold	~74%	–	67%	97%	1.3 fold	significantly increased	336 % control	reduce Akt Ser473 phosphorylation	62%	38 % control	selective mTORC2 inhibitors	decrease in LC3-II (LC3-II [2]; 40 μM): 33%
O=C1c2cc(F)c(NC3CCCC3)cc2COc2cc3c(cc21)OCO3 [HN2313, 8-(cyclopentylamino)-9-fluoro-[1,3]dioxolo[4′,5′:4,5]benzo[1,2-b]benzo[e]oxepin-11(6H)-one]	5.86 fold	~96%	62%	162%	90%	1.2 fold	not affected	–	reduce Akt Ser473 phosphorylation	66%	–	selective mTORC2 inhibitors	LC3-II (% control) (LC3-II [4]; 100 nM): 86 % control; pSer473-AKT/AKT (% control) (mTORC2; 100 nM): 34 % control; AKT Ser473 phosphorylation from 1 to 12 hours (mTORC2; from 1 to 12 hours): increased AKT Ser473 phosphorylation significantly
